Results as given in PubChem BioAssay AID2060512 (Molecular Pharmacology Branch, DTP, NCI, 2025).

Test system: 186277-243-T-J2-PDC complex spheroid viability
Assay: Anticancer human tumor 186277-243-T-J2-PDC patient-derived colon adenocarcinoma cell line growth inhibition [GQUAD]
Settings: for IC50: curve of first compound; for viability, T/C: stronger effect = lower value; active means viability on the fitted dose curve at most 10% of control; inactive means the rest
How it was run: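 Viability of tumor cells grown as complex spheroids with endothelial and stromal cells, exposed to drug combinations. Top concentration at or near clinical Cmax (else 10 microM), diluted in half-log increments.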

[1] = second compound 0.0316 µM, first compound 0.0316 µM
[2] = second compound 0.0316 µM, first compound 0.1 µM
[3] = second compound 0.0316 µM, first compound 0.316 µM
[4] = second compound 0.0316 µM, first compound 1 µM
[5] = second compound 0.0316 µM, first compound 3.16 µM
[6] = second compound 0.0316 µM, first compound 10 µM
[7] = second compound 0.1 µM, first compound 0.0316 µM
[8] = second compound 0.1 µM, first compound 0.1 µM
[9] = second compound 0.1 µM, first compound 0.316 µM
[10] = second compound 0.1 µM, first compound 1 µM
[11] = second compound 0.1 µM, first compound 3.16 µM
[12] = second compound 0.1 µM, first compound 10 µM
[13] = second compound 0.316 µM, first compound 0.0316 µM
[14] = second compound 0.316 µM, first compound 0.1 µM
[15] = second compound 0.316 µM, first compound 0.316 µM
[16] = second compound 0.316 µM, first compound 1 µM
[17] = second compound 0.316 µM, first compound 3.16 µM
[18] = second compound 0.316 µM, first compound 10 µM
[19] = second compound 1 µM, first compound 0.0316 µM
[20] = second compound 1 µM, first compound 0.1 µM
[21] = second compound 1 µM, first compound 0.316 µM
[22] = second compound 1 µM, first compound 1 µM
[23] = second compound 1 µM, first compound 3.16 µM
[24] = second compound 1 µM, first compound 10 µM
[25] = second compound 3.16 µM, first compound 0.0316 µM
[26] = second compound 3.16 µM, first compound 0.1 µM
[27] = second compound 3.16 µM, first compound 0.316 µM
[28] = second compound 3.16 µM, first compound 1 µM
[29] = second compound 3.16 µM, first compound 3.16 µM
[30] = second compound 3.16 µM, first compound 10 µM
[31] = second compound 10 µM, first compound 0.0316 µM
[32] = second compound 10 µM, first compound 0.1 µM
[33] = second compound 10 µM, first compound 0.316 µM
[34] = second compound 10 µM, first compound 1 µM
[35] = second compound 10 µM, first compound 3.16 µM
[36] = second compound 10 µM, first compound 10 µM
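Wherever viability, T/C is given: 100% = DMSO vehicle control viability.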

CC1COCCN1c1cc(C2(O)CC3CCC(C2)O3)c2cnn(-c3ccn[nH]3)c2n1 (stereo unspecified) + Cc1cnc(CNC(=O)c2c(=O)c3ccc(N4CCCN(C)CC4)nc3n3c2sc2ccccc23)cn1
active: viability, T/C [3] 5.91% | viability, T/C [4] 3.51% | viability, T/C [5] 5.56% | viability, T/C [6] 3.63% | viability, T/C [9] 8.6% | viability, T/C [10] 4.53% | viability, T/C [11] 4.78% | viability, T/C [12] 2.97% | viability, T/C [16] 6.49% | viability, T/C [17] 4.71% | viability, T/C [18] 2.1% | viability, T/C [23] 5.94% | viability, T/C [24] 0.5% | viability, T/C [29] 5.54% | viability, T/C [30] 0.33% | viability, T/C [35] 6.86% | viability, T/C [36] 0.13%
inactive: viability, T/C [1] 31.3% | viability, T/C [2] 13.1% | viability, T/C [7] 38.7% | viability, T/C [8] 16.4% | viability, T/C [13] 37.7% | viability, T/C [14] 20.9% | viability, T/C [15] 13.4% | viability, T/C [19] 29.5% | viability, T/C [20] 31.5% | viability, T/C [21] 16.4% | viability, T/C [22] 8.79% | viability, T/C [25] 36.2% | viability, T/C [26] 31% | viability, T/C [27] 19.5% | viability, T/C [28] 10.8% | viability, T/C [31] 34.9% | viability, T/C [32] 28.4% | viability, T/C [33] 23.2% | viability, T/C [34] 10.9%
< 31.6 nM: IC50 (second compound 0.0316 µM) | IC50 (second compound 0.1 µM) | IC50 (second compound 0.316 µM) | IC50 (second compound 1 µM) | IC50 (second compound 3.16 µM) | IC50 (second compound 10 µM)

Cc1[nH]c2ccccc2c1CCNCc1ccc(/C=C/C(=O)NO)cc1 + Cc1cnc(CNC(=O)c2c(=O)c3ccc(N4CCCN(C)CC4)nc3n3c2sc2ccccc23)cn1
30.9 nM: IC50 (second compound 0.0316 µM)
active: viability, T/C (second compound 0.0316 µM, first compound 0.0999 µM) 13.6% | viability, T/C [3] 1.14% | viability, T/C [9] 0.78% | viability, T/C [15] 1.35% | viability, T/C (second compound 1 µM, first compound 0.0999 µM) 4.65% | viability, T/C [21] 0.08% | viability, T/C (second compound 3.16 µM, first compound 0.0999 µM) 0.18% | viability, T/C [27] 0.11% | viability, T/C (second compound 10 µM, first compound 0.0999 µM) 0.27% | viability, T/C [33] 0.24%
17.9 nM: IC50 (second compound 0.1 µM)
10.2 nM: IC50 (second compound 0.316 µM)
inactive: viability, T/C (second compound 0.0316 µM, first compound 0.000999 µM) 108% | viability, T/C (second compound 0.0316 µM, first compound 0.00316 µM) 101% | viability, T/C (second compound 0.0316 µM, first compound 0.00999 µM) 110% | viability, T/C [1] 48.9% | viability, T/C (second compound 0.1 µM, first compound 0.000999 µM) 77.5% | viability, T/C (second compound 0.1 µM, first compound 0.00316 µM) 79.7% | viability, T/C (second compound 0.1 µM, first compound 0.00999 µM) 61.4% | viability, T/C [7] 36.7% | viability, T/C (second compound 0.1 µM, first compound 0.0999 µM) 15.4% | viability, T/C (second compound 0.316 µM, first compound 0.000999 µM) 58.4% | viability, T/C (second compound 0.316 µM, first compound 0.00316 µM) 52.8% | viability, T/C (second compound 0.316 µM, first compound 0.00999 µM) 49.2% | viability, T/C [13] 34.9% | viability, T/C (second compound 0.316 µM, first compound 0.0999 µM) 9.31% | viability, T/C (second compound 1 µM, first compound 0.000999 µM) 40.5% | viability, T/C (second compound 1 µM, first compound 0.00316 µM) 40.9% | viability, T/C (second compound 1 µM, first compound 0.00999 µM) 38.4% | viability, T/C [19] 20% | viability, T/C (second compound 3.16 µM, first compound 0.000999 µM) 35% | viability, T/C (second compound 3.16 µM, first compound 0.00316 µM) 38.6% | viability, T/C (second compound 3.16 µM, first compound 0.00999 µM) 28.3% | viability, T/C [25] 21.6% | viability, T/C (second compound 10 µM, first compound 0.000999 µM) 34.7% | viability, T/C (second compound 10 µM, first compound 0.00316 µM) 36.3% | viability, T/C (second compound 10 µM, first compound 0.00999 µM) 28.8% | viability, T/C [31] 18.9%
< 0.999 nM: IC50 (second compound 1 µM) | IC50 (second compound 3.16 µM) | IC50 (second compound 10 µM)

COc1ccc([C@@H](O)c2cc(-c3ncnc4cc(N5CCOCC5)ccc34)c(F)cc2Cl)nn1 + CN(C)c1ccc(Nc2c3ccc(NC(=O)CCN4CCCC4)cc3nc3cc(NC(=O)CCN4CCCC4)ccc23)cc1
inactive: viability, T/C [1] 102% | viability, T/C [2] 102% | viability, T/C [3] 117% | viability, T/C [4] 75.9% | viability, T/C [5] 59.8% | viability, T/C [6] 26.2% | viability, T/C [7] 112% | viability, T/C [8] 96% | viability, T/C [9] 90.1% | viability, T/C [10] 85.2% | viability, T/C [11] 73.3% | viability, T/C [12] 22.5% | viability, T/C [13] 95% | viability, T/C [14] 92.7% | viability, T/C [15] 104% | viability, T/C [16] 82.3% | viability, T/C [17] 57.8% | viability, T/C [18] 26.3% | viability, T/C [19] 86.5% | viability, T/C [20] 93.2% | viability, T/C [21] 89.2% | viability, T/C [22] 110% | viability, T/C [23] 62.8% | viability, T/C [24] 19.9% | viability, T/C [25] 98.3% | viability, T/C [26] 87.5% | viability, T/C [27] 108% | viability, T/C [28] 96.4% | viability, T/C [29] 61.1% | viability, T/C [30] 20.4% | viability, T/C [31] 91.3% | viability, T/C [32] 88.1% | viability, T/C [33] 111% | viability, T/C [34] 81.1% | viability, T/C [35] 37.9%
active: viability, T/C [36] 7.76%
3940 nM: IC50 (second compound 0.0316 µM)
5030 nM: IC50 (second compound 0.1 µM)
4100 nM: IC50 (second compound 0.316 µM)
4330 nM: IC50 (second compound 3.16 µM)
2310 nM: IC50 (second compound 10 µM)
4450 nM: IC50 (second compound 1 µM)
